Assay results: publication PMC11208997 (RSC Advances, 2024)

Experiments:
Cell viability assay = assay type: cell-based; settings: human, MCF-10A mammary gland epithelial normal cells
[1] = tested on: lung cancer (A-549) cell line; assay: Antiproliferative assay, A-549; assay type: cell-based; settings: Homo sapiens, A549, read-out: Antiproliferative activity IC50 ± SEM, A-549
[2] = tested on: breast cancer (MCF-7) cell line; assay: Antiproliferative assay, MCF-7; assay type: cell-based; settings: Homo sapiens, MCF7, read-out: Antiproliferative activity IC50 ± SEM, MCF-7
[3] = tested on: pancreatic cancer (Panc-1) cell line; assay: Antiproliferative assay, Panc-1; assay type: cell-based; settings: Homo sapiens, PANC-1, read-out: Antiproliferative activity IC50 ± SEM, Panc-1
colon cancer (HT-29) = assay: Antiproliferative assay, HT-29; assay type: cell-based; settings: Homo sapiens, HT-29, read-out: Antiproliferative activity IC50 ± SEM, HT-29
[4] = tested on: four human cancer cell lines (A-549, MCF-7, Panc-1, HT-29); assay: Antiproliferative assay, average over four cancer cell lines; assay type: cell-based; settings: for Fold lower antiproliferative potency (GI50) than 9c: GI50 relative to 9c; for GI50: Homo sapiens, read-out: Antiproliferative activity, Average (GI50)
EGFR [5] = target: EGFR (Homo sapiens, UniProt P00533); assay: EGFR-TK inhibitory assay; assay type: biochemical
Sequence of EGFR (Homo sapiens, UniProt P00533) (P00533 669-1210): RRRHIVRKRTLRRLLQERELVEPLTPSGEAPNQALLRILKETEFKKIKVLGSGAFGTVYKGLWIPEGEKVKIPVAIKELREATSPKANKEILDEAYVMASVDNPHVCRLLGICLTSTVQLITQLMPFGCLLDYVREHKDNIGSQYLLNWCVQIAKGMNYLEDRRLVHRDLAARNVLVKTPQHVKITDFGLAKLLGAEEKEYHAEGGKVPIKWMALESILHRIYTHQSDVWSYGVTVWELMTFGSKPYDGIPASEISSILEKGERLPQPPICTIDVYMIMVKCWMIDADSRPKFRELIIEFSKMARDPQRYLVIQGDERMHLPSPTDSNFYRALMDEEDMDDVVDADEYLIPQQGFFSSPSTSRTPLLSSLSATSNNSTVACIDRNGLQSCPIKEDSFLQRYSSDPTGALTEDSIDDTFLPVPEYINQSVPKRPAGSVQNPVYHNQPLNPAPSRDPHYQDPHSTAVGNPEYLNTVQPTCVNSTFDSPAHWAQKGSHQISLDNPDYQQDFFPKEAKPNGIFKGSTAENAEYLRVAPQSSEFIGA

BRAF^V600E [6] = target: BRAF^V600E (Mus musculus, UniProt P28028, V585E); assay: BRAF^V600E inhibitory assay; assay type: biochemical
Sequence of BRAF^V600E (Mus musculus, UniProt P28028, V585E) (P28028 whole entry V585E): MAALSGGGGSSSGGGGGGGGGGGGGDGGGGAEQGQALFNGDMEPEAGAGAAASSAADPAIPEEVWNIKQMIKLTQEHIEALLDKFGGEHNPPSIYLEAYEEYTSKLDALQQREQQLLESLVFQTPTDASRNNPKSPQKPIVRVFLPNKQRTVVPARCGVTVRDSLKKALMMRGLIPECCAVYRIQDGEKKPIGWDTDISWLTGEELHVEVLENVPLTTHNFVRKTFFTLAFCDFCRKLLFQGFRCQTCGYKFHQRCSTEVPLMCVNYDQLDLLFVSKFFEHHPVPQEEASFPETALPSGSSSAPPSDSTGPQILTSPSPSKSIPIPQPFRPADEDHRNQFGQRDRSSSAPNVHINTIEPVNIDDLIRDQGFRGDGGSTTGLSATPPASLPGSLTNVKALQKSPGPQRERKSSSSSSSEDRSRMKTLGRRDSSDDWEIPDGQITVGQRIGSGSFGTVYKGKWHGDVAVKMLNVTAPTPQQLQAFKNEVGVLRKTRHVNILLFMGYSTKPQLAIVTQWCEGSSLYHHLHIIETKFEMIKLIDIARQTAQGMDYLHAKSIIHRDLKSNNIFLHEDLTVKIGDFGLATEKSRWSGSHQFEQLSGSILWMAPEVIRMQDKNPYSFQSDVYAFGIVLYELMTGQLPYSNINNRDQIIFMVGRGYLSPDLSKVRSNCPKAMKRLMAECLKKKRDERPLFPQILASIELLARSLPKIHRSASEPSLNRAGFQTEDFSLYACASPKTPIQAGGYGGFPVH

VEGFR-2 [7] = target: VEGFR-2 (Homo sapiens, UniProt P35968); assay: VEGFR-2 inhibitory assay; assay type: biochemical
Sequence of VEGFR-2 (Homo sapiens, UniProt P35968) (P35968 20-1356): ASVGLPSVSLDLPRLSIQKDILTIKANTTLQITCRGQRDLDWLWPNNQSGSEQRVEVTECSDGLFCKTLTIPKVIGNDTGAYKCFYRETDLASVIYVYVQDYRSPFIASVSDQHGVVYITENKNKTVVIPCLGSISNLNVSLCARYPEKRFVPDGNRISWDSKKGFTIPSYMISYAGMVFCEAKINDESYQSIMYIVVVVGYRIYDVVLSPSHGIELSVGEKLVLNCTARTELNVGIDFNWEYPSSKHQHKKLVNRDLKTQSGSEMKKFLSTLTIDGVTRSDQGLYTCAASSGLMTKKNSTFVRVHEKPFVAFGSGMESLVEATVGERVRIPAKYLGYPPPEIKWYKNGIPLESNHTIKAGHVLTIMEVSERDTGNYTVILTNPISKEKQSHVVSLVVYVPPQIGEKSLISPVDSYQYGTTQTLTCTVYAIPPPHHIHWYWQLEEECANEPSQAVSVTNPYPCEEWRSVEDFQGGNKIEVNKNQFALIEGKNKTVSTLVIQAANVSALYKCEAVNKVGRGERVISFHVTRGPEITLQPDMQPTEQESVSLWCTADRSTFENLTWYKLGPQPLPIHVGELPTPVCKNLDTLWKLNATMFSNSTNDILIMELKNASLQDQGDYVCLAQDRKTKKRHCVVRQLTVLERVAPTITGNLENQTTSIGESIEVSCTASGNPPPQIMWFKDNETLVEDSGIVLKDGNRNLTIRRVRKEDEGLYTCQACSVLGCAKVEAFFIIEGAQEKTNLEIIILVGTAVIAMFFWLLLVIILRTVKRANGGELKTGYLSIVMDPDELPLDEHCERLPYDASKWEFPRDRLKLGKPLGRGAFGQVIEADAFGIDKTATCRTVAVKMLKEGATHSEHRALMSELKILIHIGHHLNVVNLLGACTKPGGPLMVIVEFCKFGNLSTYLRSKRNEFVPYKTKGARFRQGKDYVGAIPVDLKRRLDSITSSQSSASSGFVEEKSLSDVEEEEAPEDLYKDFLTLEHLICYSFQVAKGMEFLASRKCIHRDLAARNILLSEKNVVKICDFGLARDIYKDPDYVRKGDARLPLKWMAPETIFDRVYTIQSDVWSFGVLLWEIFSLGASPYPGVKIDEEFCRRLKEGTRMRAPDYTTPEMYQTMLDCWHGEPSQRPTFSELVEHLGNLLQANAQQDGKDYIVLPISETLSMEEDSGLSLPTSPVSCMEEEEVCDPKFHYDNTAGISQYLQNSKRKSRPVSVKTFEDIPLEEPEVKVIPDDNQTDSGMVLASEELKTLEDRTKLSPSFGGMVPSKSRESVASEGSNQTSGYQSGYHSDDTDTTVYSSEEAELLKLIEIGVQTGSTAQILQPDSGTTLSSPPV

EGFR [8] = assay: Western blotting, EGFR level in A549 cells; assay type: cell-based, human; settings: untreated control OD 0.695
VEGFR-2 [9] = assay: Western blotting, VEGFR-2 level in A549 cells; assay type: cell-based, human; settings: untreated control OD 0.662
BRAF^V600E [10] = assay: Western blotting, BRAF^V600E level in A549 cells; assay type: cell-based, human; settings: untreated control OD 0.507

Compound	IC50 [1]	IC50 [2]	IC50 [3]	IC50 (colon cancer (HT-29))	Fold lower antiproliferative potency (GI50) than 9c [4]	GI50 [4]	IC50 (EGFR [5])	IC50 (BRAF^V600E [6])	IC50 (VEGFR-2 [7])	viability at 96 h, 50 µM (Cell viability assay)	Western blotting OD, EGFR (EGFR [8])	Western blotting OD, VEGFR-2 (VEGFR-2 [9])	Western blotting OD, BRAF^V600E (BRAF^V600E [10])
Br.c1ccc(NC2=NN=C(c3ccccc3)CS2)cc1 [Compound 9a, 5-Phenyl-2-(phenylamino)-6H-1,3,4-thiadiazin-3-ium bromide]	0.043 ± 0.004 µM	0.04 ± 0.004 µM	0.044 ± 0.004 µM	0.044 ± 0.004 µM	1.2 fold	0.043 µM	0.092 ± 0.007 µM	0.083 ± 0.006 µM	0.0028 ± 2e-05 µM	91%	–	–	–
Brc1ccc(C2=NN=C(Nc3ccccc3)SC2)cc1 [Compound 9d, 5-(4-Bromophenyl)-2-(phenylamino)-6H-1,3,4-thiadiazin-3-ium bromide]	0.048 ± 0.004 µM	0.044 ± 0.004 µM	0.048 ± 0.004 µM	0.047 ± 0.004 µM	–	0.047 µM	0.096 ± 0.007 µM	0.088 ± 0.006 µM	0.00325 ± 3e-05 µM	89%	–	–	–
C/N=C1/NN=C(c2ccc(Br)cc2)CS1 [Compound 9e, (Z)-N-(5-(4-Bromophenyl)-3,6-dihydro-2H-1,3,4-thiadiazin-2-ylidene) methanaminium bromide]	0.062 ± 0.006 µM	0.058 ± 0.005 µM	0.064 ± 0.006 µM	0.064 ± 0.006 µM	–	0.062 µM	–	–	–	92%	–	–	–
CC/N=C1/NN=C(c2ccc(Br)cc2)CS1 [Compound 9f, (Z)-N-(5-(4-Bromophenyl)-3,6-dihydro-2H-1,3,4-thiadiazin-2-ylidene)ethan aminium bromide]	0.065 ± 0.006 µM	0.064 ± 0.006 µM	0.066 ± 0.006 µM	0.066 ± 0.006 µM	–	0.066 µM	–	–	–	89%	–	–	–
C#Cc1cccc(Nc2ncnc3cc(OCCOC)c(OCCOC)cc23)c1 [Erlotinib, reference compound]	0.03 ± 0.003 µM	0.04 ± 0.003 µM	0.03 ± 0.003 µM	0.03 ± 0.003 µM	–	–	–	–	–	–	–	–	–

Second part, led by results:

IC50 [1]	IC50 [2]	IC50 [3]	IC50 (colon cancer (HT-29))	Fold lower antiproliferative potency (GI50) than 9c [4]	GI50 [4]	IC50 (EGFR [5])	IC50 (BRAF^V600E [6])	IC50 (VEGFR-2 [7])	Compound	viability at 96 h, 50 µM (Cell viability assay)	Western blotting OD, EGFR (EGFR [8])	Western blotting OD, VEGFR-2 (VEGFR-2 [9])	Western blotting OD, BRAF^V600E (BRAF^V600E [10])
0.056 ± 0.005 µM	0.052 ± 0.005 µM	0.058 ± 0.005 µM	0.058 ± 0.005 µM	1.5 fold	0.056 µM	–	–	–	Br.C=CC/N=C1/NN=C(c2ccccc2)CS1 [Compound 9b, (Z)-N-(5-Phenyl-3,6-dihydro-2H-1,3,4-thiadiazin-2-ylidene)prop-2-en-1-aminium bromide]	90%	–	–	–
0.037 ± 0.003 µM	0.035 ± 0.003 µM	0.038 ± 0.003 µM	0.04 ± 0.004 µM	–	0.038 µM	0.086 ± 0.005 µM	0.074 ± 0.005 µM	0.0022 ± 2e-05 µM	Br.c1ccc(C2=NN/C(=N/C3CCCCC3)SC2)cc1 [Compound 9c, (Z)-N-(5-Phenyl-3,6-dihydro-2H-1,3,4-thiadiazin-2-ylidene) cyclohexanaminium bromide]	92%	0.288	0.346	0.219
0.054 ± 0.005 µM	0.051 ± 0.005 µM	0.056 ± 0.005 µM	0.056 ± 0.005 µM	–	0.054 µM	–	–	–	Brc1ccc(C2=NN/C(=N/C3CCCCC3)SC2)cc1 [Compound 9g, (Z)-N-(5-(4-Bromophenyl)-3,6-dihydro-2H-1,3,4-thiadiazin-2-ylidene) cyclohexanaminium bromide]	88%	–	–	–
